In US20100247448A1, “NOVEL LANTHANIDE LIGANDS AND COMPLEXES, AND USE THEREOF AS CONTRAST AGENTS” (COMMISSARIAT A L'ENERGIE ATOMIQUE, priority 2006, published 2010):
Values joined by “and” are separate entries in the source; they are usually repeats but may differ in a detail not shown here. Equal values may be shown once. Read-outs that look alike come from different tables or passages of the source. One block for each molecule: values may come before it.

How the values were obtained:
[1] = gadolinium complexes; cited from earlier work
[2] = Stability constant of the Ca complex by direct titration of 1:1 metal:ligand; pCa; format: physicochemical; settings: for logβCaL (log KCaL): present work, 1:1 metal:H3bpatcn 5.10^−4 M, pH 2.5 to 8.5
Excerpt: (§1) The stability constants of the complexes of H3bpatcn of Gd^III and of […] have been calculated by direct titration of a mixture of 1:1 metal:H3bpatcn (5.10^−4 M) in a pH range between 2.5 and 8.5.
(§2) The titration data may be represented by the following equations:
Ca^2++bpatcn^3−⇄[Ca(bpatcn)]^− log KCaL=8.18(7)

[3] = cited from earlier work; for logβCaL: literature
[4] = cited from earlier work; for Log βGdL (log KGdL): literature
[5] = literature; cited from earlier work
[6] = Absorption and luminescence (excitation, molar absorption, lifetime, quantal throughput); format: physicochemical; settings: for molar absorption coefficient: band at ˜36500 cm^−1; for ΦD2O (quantal throughput): in D2O; for ΦH2O (quantal throughput): in H2O; for τD2O (luminescence lifetime): in deuterized water; for τH2O (luminescence lifetime): in water; for emission quantal throughput F: relative to [Tb(dpa)3]^3−, buffer solution Tris 0.1M, 15% experimental error
Excerpt: The absorption spectra of bpatcn^3− and its complexes of Eu^III and Tb^III show an intense band at ˜36500 cm^−1 with a molar absorption coefficient of 9050 for Eu and of 9100 for Tb. These bands have been attributed to a combination of π-->π* and n-->π* centred transitions of the ligand.
FIGS. 3a and 3b show respectively the emission spectra of the solutions of the europium and terbium complexes at pH=7.4 (obtained after excitation at 273 nm) and the usual and typical transitions ^5D0-->^7FJ and ^5D4-->^7FJ (J=0-6) of the ions Eu^3+ and Tb^3+.
The emission quantal throughput of the complex of [Tb(bpatcn)(H2O)]
The long life time of the luminescence observed for the terbium complex in water (1.5 ms), excludes the presence of a de-energizing process including the energy return of the metal in its energized state towards the ligand.
Chem. Int. Ed. Engl., 1987, 26, 1266; G. Mathis, Clin. Chem., 1993, 39, 195

[7] = Stability constant of the Gd complex by direct titration of 1:1 metal:ligand; pGd; format: physicochemical; settings: for Log βGdL (log KGdL): present work, 1:1 metal:H3bpatcn 5.10^−4 M, pH 2.5 to 8.5
Excerpt: as §1, §2
Gd^3++bpatcn^3−⇄[Gd(bpatcn)] log KGdL=15.8(2);

[8] = De-protonation constants (pKa) by potentiometric titration; format: physicochemical; settings: 0.1 M KCl, 298 K
Excerpt: Both following equivalents protonate the carboxylate moieties associated with the pyridines (pKa2=2.3(2), pKa3=3.71(3).
The protonation curve and the structural data match a simultaneous partial protonation of the three nitrogens of the macrocycle as observed for the ligand H3nota, followed by the protonation of the carboxylate moieties. The protonation of the third amine and of the nitrogens of the pyridines takes place at lower pH and the related pKa has not been determined.

[9] = commercial contrast agent, comparison
[10] = pH 7.4, [M]total=1 μM, [bpatcn]total=10 μM

Compound: O=C([O-])c1cccc(CN2CCN(Cc3cccc(C(=O)[O-])n3)CCN(Cc3cccc(C(=O)[O-])n3)CC2)n1.[Gd+3] [[Gd(tpatcn)]]
zero-field spin electronic relaxation [1]: approx. 1500 ps

logβCaL (log KCaL) [2]: 8.18(7)
Compound: O=C(O)CN1CCN(Cc2cccc(C(=O)[O-])n2)CCN(Cc2cccc(C(=O)[O-])n2)CC1.[Ca+2] [[Ca(bpatcn)]^−]

Compound: CNC(=O)CN(CCN(CCN(CC(=O)[O-])CC(=O)NC)CC(=O)[O-])CC(=O)[O-].[Gd+3] [[Gd(dtpa-bma)(H2O)]^−]
pCa [3, 9]: 6.39
pGd [4, 9]: 15.8
Log βGdL (log KGdL) [4]: 1.85

Compound: O=C(O)CN(CC(=O)O)CC(=O)O [H3nta, nitrilotriethanoic acid]
pKa (highest, first listed) [5]: 9.75
pKa (second listed) [5]: 2.64
pKa (third listed) [5]: 1.57
Log βGdL (log KGdL) [4]: 11.4

ε [6]: 9100 M⁻¹ cm⁻¹
λexc [6]: 273 nm
quantal throughput value Φ ([6]; as stated in text before the table): 48%
molar absorption coefficient [6]: 9100 M⁻¹ cm⁻¹
ΦD2O (quantal throughput) [6]: 0.48
ΦH2O (quantal throughput) [6]: 0.43
τD2O (luminescence lifetime) [6]: 2.46 (7) ms
τH2O (luminescence lifetime) [6]: 1.5 ms and 1.49 (2) ms
emission quantal throughput F [6]: 43%
Compound: O=C([O-])CN1CCN(Cc2cccc(C(=O)[O-])n2)CCN(Cc2cccc(C(=O)[O-])n2)CC1.[Tb+3] [Tb (bpatcn)]

Log βGdL (log KGdL) [7]: 15.8(2)
Compound: O=C([O-])CN1CCN(Cc2cccc(C(=O)[O-])n2)CCN(Cc2cccc(C(=O)[O-])n2)CC1.[Gd+3] [[Gd(bpatcn)]]

Compound: O=C(O)CN(CCN(CC(=O)O)Cc1ccccn1)Cc1ccccn1 [N,N′-bis(2-pyridinylmethyl)ethylenediamine-N,N′-diacetate]
contribution of the 2-pyridylmethyl to stability of the Gd^III complex ([4]; estimated): 2.6 log units

Compound: O=C(O)CN(CCN(CC(=O)O)CC(=O)O)CC(=O)O [H4edta]
logβCaL [3]: 10.5
pKa (fourth listed) [5]: 2.60
pKa (highest, first listed) [5]: 10.19
pKa (second listed) [5]: 6.13
pKa (third listed) [5]: 2.69
Log βGdL (log KGdL) [4]: 17.4

ε [6]: 9050 M⁻¹ cm⁻¹
λexc [6]: 273 nm
molar absorption coefficient [6]: 9050 M⁻¹ cm⁻¹
ΦD2O (quantal throughput) [6]: 0.12
ΦH2O (quantal throughput) [6]: 0.05
τD2O (luminescence lifetime) [6]: 1.67 (4) ms
τH2O (luminescence lifetime) [6]: 0.542 (4) ms
emission quantal throughput F [6]: 5%
Compound: O=C([O-])CN1CCN(Cc2cccc(C(=O)[O-])n2)CCN(Cc2cccc(C(=O)[O-])n2)CC1.[Eu+3] [Eu (bpatcn)]

Compound: C1CNCCNCCN1 [1,4,7-triazacyclononane]
pKa (highest, first listed) [5]: 10.42
pKa (second listed) [5]: 6.82

Compound: O=C(O)CN1CCN(CC(=O)O)CCN(CC(=O)O)CCN(CC(=O)O)CC1 (Gd complex, metal not drawn) [dota, 1,4,7,10-tetraazacyclododecane-N,N′,N″,N′″-tetra-acetic (H4dota) acid]
zero-field spin electronic relaxation [1]: 650 ps

Compound: O=C(O)CN(CCN(CC(=O)O)Cc1cccc(C(=O)O)n1)Cc1cccc(C(=O)O)n1 [H4bpdea, N,N′-bis[(6-carboxypyridin-2-yl)methyl]-ethylene diamine-N,N′-diacetic (H4bpeda) acid]
logβCaL [3]: 9.4(1)
pKa (fourth listed) [5]: 2.9(1)
pKa (highest, first listed) [5]: 8.5(1)
pKa (second listed) [5]: 5.2(2)
pKa (third listed) [5]: 3.5(1)
Log βGdL (log KGdL) [4]: 15.1(3)

ε [6]: 7850 M⁻¹ cm⁻¹
λexc [6]: 272 nm
pCa (−log [M]free) [2, 10]: 6.30
logβCaL (log KCaL) [2]: 8.18(7)
pKa4 ([8]; macrocycle nitrogen): 5.42(3)
pKa5 ([8]; macrocycle nitrogen): 10.5(2)
pKa2 ([8]; picolinate carboxylate): 2.3(2)
pKa3 ([8]; picolinate carboxylate): 3.7(3) and 3.71(3)
pKa1 ([8]; protonation of the carboxylate moiety): 2.2(2)
increase in stability of the gadolinium complex (relative to nota complex) ([7]; due to two pyridyl nitrogen donors): 2.1 log units
pGd (−log [M]free) [7, 10]: 13.6
Log βGdL (log KGdL) [7]: 15.8(2)
Compound: O=C(O)CN1CCN(Cc2cccc(C(=O)O)n2)CCN(Cc2cccc(C(=O)O)n2)CC1 [H3bpatcn]

Compound: O=C(O)CN1CCN(CC(=O)O)CCN(CC(=O)O)CC1 [H3nota, 1,4,7-triazacyclononane-N,N′,NN″-triacetic (H3nota) acid]
logβCaL [3]: 8.92
pKa (highest, first listed) [5]: 11.3(1)
pKa (second listed) [5]: 5.6
pKa (third listed) [5]: 2.88(2)
Log βGdL (log KGdL) [4]: 13.7

Compound: O=C(O)c1cccc(CN(Cc2cccc(C(=O)O)n2)Cc2cccc(C(=O)O)n2)n1 [H3tpaa, α, α′, α″ nitrilotri(6-methyl-2-pyridinecarboxylic) acid]
logβCaL [3]: 8.5(2)
pKa (highest, first listed) [5]: 4.11(6)
pKa (second listed) [5]: 3.3(1)
pKa (third listed) [5]: 2.5(2)
Log βGdL (log KGdL) [4]: 10.2(2)
